Calls of active or inactive are those of the source. The rule behind the calls is not given here.
Tests used:
786-0 = test: Antiproliferative activity against human 786-0 cells assessed as inhibition of cell growth measured after 48 hrs by MTT assay; type: functional, cell-based; conditions: 786-0, 48 h
HT-29 = test: Antiproliferative activity against human HT-29 cells assessed as inhibition of cell growth measured after 48 hrs by MTT assay; type: functional, cell-based; conditions: HT-29, 48 h
[1] = Antiproliferative activity against human BIU-87 cells assessed as inhibition of cell growth measured after 48 hrs by MTT assay; type: functional, cell-based; conditions: BIU87, 48 h
KB = test: Antiproliferative activity against human KB cells assessed as inhibition of cell growth measured after 48 hrs by MTT assay; type: functional, cell-based
SK-OV-3 = test: Antiproliferative activity against human SK-OV-3 cells assessed as inhibition of cell growth measured after 48 hrs by MTT assay; type: functional, cell-based; conditions: SK-OV-3, 48 h
ECa-109 cell line = test: Antiproliferative activity against human Eca-109 cells assessed as inhibition of cell growth measured after 48 hrs by MTT assay; type: functional, cell-based; conditions: ECa-109, 48 h
HCT-116 [2] = test: Antiproliferative activity against human HCT-116 cells assessed as inhibition of cell growth at 1 to 4 uM by CCK-8 assay; type: functional, cell-based; conditions: dose 1-4 µM, time <= 7.0 day, TDE = time-dependent effect
HCT-116 [3] = test: Induction of morphological changes in human HCT-116 cells assessed as appearance of wrinkled cells at 2 to 6 uM measured after 24 hrs by microscopic analysis; type: functional, cell-based; conditions: dose 2-6 µM
HCT-116 [4] = test: Induction of apoptosis in human HCT-116 cells assessed as viable cells at 2 uM incubated for 24 hrs by annexin V FITC/propidium iodide staining based flow cytometry (reference value: 83 %); type: functional; conditions: read-out: Activity
HCT-116 [5] = test: Induction of apoptosis in human HCT-116 cells assessed as early apoptotic cells at 2 uM incubated for 24 hrs by annexin V FITC/propidium iodide staining based flow cytometry (reference value: 4.7%); type: functional
HCT-116 [6] = test: Induction of apoptosis in human HCT-116 cells assessed as late apoptotic cells at 1 uM incubated for 24 hrs by annexin V FITC/propidium iodide staining based flow cytometry (reference value: 4.6%); type: functional
HCT-116 [7] = test: Induction of apoptosis in human HCT-116 cells assessed as necrotic cells at 2 uM incubated for 24 hrs by annexin V FITC/propidium iodide staining based flow cytometry (reference value: 7.7%); type: functional
HCT-116 [8] = test: Induction of apoptosis in human HCT-116 cells assessed as early apoptotic cells at 1 uM incubated for 24 hrs in presence of Z-VAD-FMK by annexin V FITC/propidium iodide staining based flow cytometry (reference value: 6.3 %); type: functional
HCT-116 [9] = test: Induction of apoptosis in human HCT-116 cells assessed as early apoptotic cells at 2 uM incubated for 24 hrs in presence of Z-VAD-FMK by annexin V FITC/propidium iodide staining based flow cytometry (reference value: 6.3 %); type: functional
HCT-116 [10] = test: Induction of apoptosis in human HCT-116 cells assessed as late apoptotic cells at 1 uM incubated for 24 hrs in presence of Z-VAD-FMK by annexin V FITC/propidium iodide staining based flow cytometry (reference value: 4.6 %); type: functional
HCT-116 [11] = test: Induction of apoptosis in human HCT-116 cells assessed as necrotic cells at 2 uM incubated for 24 hrs in presence of Z-VAD-FMK by annexin V FITC/propidium iodide staining based flow cytometry (reference value: 2.9 %); type: functional
HCT-116 [12] = test: Induction of apoptosis in human HCT-116 cells assessed as increase in cleaved caspase 3 expression upto 5 uM incubated for 24 hrs by Western blot analysis; type: functional, cell-based
HCT-116 [13] = test: Induction of apoptosis in human HCT-116 cells assessed as increase in caspase 3 expression upto 5 uM incubated for 24 hrs by Western blot analysis; type: functional, cell-based
HCT-116 [14] = test: Antiproliferative activity against p53 knockout human HCT-116 cells assessed as inhibition of cell growth measured after 24 hrs by CCK-8 assay; type: functional, cell-based; conditions: HCT-116, 24 h
HCT-116 [15] = test: Induction of apoptosis in p53 knockout human HCT-116 cells assessed as increase in caspase 3 expression upto 5 uM incubated for 24 hrs by Western blot analysis; type: functional, cell-based
HCT-116 [16] = test: Induction of autophagy in human HCT-116 cells assessed as increase in p62 expression upto 5 uM incubated for 24 hrs by Western blot analysis; type: functional, cell-based
HCT-116 [17] = test: Induction of autophagy in human HCT-116 cells assessed as increase in p62 expression at 3 uM measured upto 36 hrs by Western blot analysis; type: functional, cell-based
HCT-116 [18] = test: Induction of autophagy in human HCT-116 cells assessed as increase in LC3-II expression at 3 uM measured after 48 to 60 hrs by Western blot analysis; type: functional, cell-based; conditions: time 48-60 hrs
HCT-116 [19] = test: Antiproliferative activity against ATG5 knockout human HCT-116 cells assessed as inhibition of cell growth measured after 24 hrs by CCK-8 assay; type: functional, cell-based; conditions: HCT-116, 24 h
HCT-116 [20] = test: Antiproliferative activity against ATG7 knockout human HCT-116 cells assessed as inhibition of cell growth measured after 24 hrs by CCK-8 assay; type: functional, cell-based; conditions: HCT-116, 24 h
HCT-116 [21] = test: Inhibition of colony formation in ATG5 knockout human HCT-116 cells upto 4 uM […] by crystal violet staining based analysis; type: functional, cell-based
HCT-116 [22] = test: Antiproliferative activity against human HCT-116 cells expressing ATG5-FLAG assessed as inhibition of cell growth measured after 24 hrs by CCK-8 assay; type: functional, cell-based; conditions: HCT-116, 24 h
HCT-116 [23] = test: Induction of autophagy in human HCT-116 cells expressing ATG7-FLAG assessed as increase in LC3-II expression upto 4 uM measured after 24 hrs by Western blot analysis; type: functional, cell-based
CT26 = test: Antitumor activity against […] CT26 cells xenografted in C57BL/6 mouse assessed as reduction in tumor weight at 45 mg/kg, ip administered once every two days measured after 16 days; type: functional; parameters: scale not given: the % may be the effect or the level left; conditions: time 16 day
HCT-116 [24] = test: Upregulation of IFN-alpha response pathway in human HCT-116 cells at 2 uM incubated for 24 hrs by RNA sequencing analysis; type: functional, cell-based
HCT-116 [25] = test: Upregulation of bile acid metabolism pathway in human HCT-116 cells at 2 uM incubated for 24 hrs by RNA sequencing analysis; type: functional, cell-based
HCT-116 [26] = test: Downregulation of oxidative phosphorylation gene in human HCT-116 cells at 2 uM incubated for 24 hrs by RNA sequencing analysis; type: functional, cell-based
HCT-116 [27] = test: Downregulation of DNA repair gene in human HCT-116 cells at 2 uM incubated for 24 hrs by RNA sequencing analysis; type: functional, cell-based

`CN1CCN(Cc2cc3c4ccccc4n(CCCc4ccccc4)c3c(CN3CCN(C)CC3)n2)CC1` showed an IC50 (786-0) of 2.71 µM, an IC50 (HT-29) of 2.02 µM and an IC50 [1] of 4.53 µM. It also gave an IC50 (KB) of 8.12 µM, an IC50 (SK-OV-3) of 10.6 µM and an IC50 (ECa-109 cell line) of 8.62 µM. The Activity (HCT-116 [2]) was “Tde”, the Activity (HCT-116 [3]) was “Active” and the viability at 2 µM (HCT-116 [4]) was 82.1%. For the same molecule, the Activity (HCT-116 [5]) was 6.2%, the Activity (HCT-116 [6]) was 5.6% and the Activity (HCT-116 [7]) was 4.9%. The Activity (HCT-116 [8]) was 6.7%, the Activity (HCT-116 [9]) was 5.4% and the Activity (HCT-116 [10]) was 4.9%. The Activity (HCT-116 [11]) was 6.3%, the Activity (HCT-116 [12]) was “inactive” and the Activity (HCT-116 [13]) was “inactive”. For the same molecule, the IC50 (HCT-116 [14]) was 4.71 µM, the Activity (HCT-116 [15]) was “inactive” and the Activity (HCT-116 [16]) was “Active”. For the same molecule, the Activity (HCT-116 [17]) was “Active”, the Activity (HCT-116 [18]) was “inactive” and the IC50 (HCT-116 [19]) was 7.36 µM. For the same molecule, the IC50 (HCT-116 [20]) was 7.89 µM, the inhibition (HCT-116 [21]) was “inactive” and the IC50 (HCT-116 [22]) was 4.57 µM. For the same molecule, the Activity (HCT-116 [23]) was “Active”, the Activity (CT26) was 69.69% and the Activity (HCT-116 [24]) was “Active”. For the same molecule, the Activity (HCT-116 [25]) was “Active”, the Activity (HCT-116 [26]) was “Active” and the Activity (HCT-116 [27]) was “Active”.
